Measurements from ChEMBL document CHEMBL5214978, “Identification of 1,4-Benzodiazepine-2,5-dione Derivatives as Potential Protein Synthesis Inhibitors with Highly Potent Anticancer Activity” (J Med Chem, 2022).

Columns and labels:
Type in all cases: functional
A549 = assay: Anticancer activity against human A549 cells assessed as cell growth inhibition measured after 48 hrs by SRB assay
786-0 = assay: Anticancer activity against human 786-0 cells assessed as cell growth inhibition measured after 48 hrs by SRB assay
[1] = system: Panel NCI-60 (60 carcinoma cell lines); assay: Anticancer activity against human Panel NCI-60 (60 carcinoma cell lines) line assessed as cell growth inhibition measured after 48 hrs by SRB assay
SF-295 = assay: Anticancer activity against human SF-295 cells assessed as cell growth inhibition measured after 48 hrs by SRB assay
LOX IMVI = assay: Anticancer activity against human LOX IMVI cells assessed as cell growth inhibition measured after 48 hrs by SRB assay
HCT-116 = assay: Anticancer activity against human HCT-116 cells assessed as cell growth inhibition measured after 48 hrs by SRB assay

SMILES | GI50 (A549) | GI50 (786-0) | GI50 [1] | GI50 (SF-295) | GI50 (LOX IMVI) | GI50 (HCT-116)
CCOC(=O)C1NC(=O)c2cc(Oc3cc(C)cc(C)c3)c(NC(=O)c3cc(OC)c(OC)c(OC)c3)cc2NC1=O (stereo unspecified) | > 50000 nM | > 50000 nM | > 50000 nM | > 50000 nM | > 50000 nM | > 50000 nM
CCCCN(CCCC)C(=O)C[C@@H]1NC(=O)c2cc(Oc3cc(C)cc(C)c3)c(NC(=O)c3cc(OC)c(OC)c(OC)c3)cc2NC1=O | 360 nM | 360 nM | – | 320 nM | 340 nM | 460 nM
COC(=O)C[C@@H]1NC(=O)c2cc(Oc3cc(C)cc(C)c3)c(NC(=O)c3ccc(F)cc3)cc2NC1=O | > 50000 nM | > 50000 nM | > 50000 nM | > 50000 nM | > 50000 nM | > 50000 nM
CCN(CC)C(=O)C[C@@H]1NC(=O)c2cc(Oc3cc(C)cc(C)c3)c(NC(=O)c3cc(OC)c(OC)c(OC)c3Br)cc2NC1=O | < 5 nM | 7 nM | < 5 nM | < 5 nM | < 5 nM | > 5 nM
COC(=O)C[C@@H]1NC(=O)c2cc(Oc3ccc4c(c3)CCC4)c(NC(=O)c3cc(OC)c(OC)c(OC)c3)cc2NC1=O | 1400 nM | 2130 nM | 1860 nM | 990 nM | 1930 nM | 1710 nM
COC(=O)C[C@@H]1NC(=O)c2cc(Oc3ccc(C)c(C)c3)c(NC(=O)c3cc(OC)c(OC)c(OC)c3)cc2NC1=O | 1520 nM | 2400 nM | 1910 nM | 1010 nM | 2550 nM | 2010 nM
COc1cc(C(=O)Nc2cc3c(cc2Oc2cc(C)cc(C)c2)C(=O)N[C@@H](CC(=O)N2CCN(C)CC2)C(=O)N3)cc(OC)c1OC | 180 nM | 1570 nM | 1580 nM | 670 nM | 90 nM | 140 nM
CCN(CC)C(=O)C[C@@H]1NC(=O)c2cc(Oc3cc(C)cc(C)c3)c(N(C)C(=O)c3cc(OC)c(OC)c(OC)c3)cc2NC1=O | > 50000 nM | > 50000 nM | > 50000 nM | > 50000 nM | > 50000 nM | 50000 nM
COc1cc(C(=O)Nc2cc3c(cc2Oc2cc(C)cc(C)c2)C(=O)N[C@@H](CC(=O)O)C(=O)N3)cc(OC)c1OC | > 50000 nM | > 50000 nM | > 50000 nM | > 50000 nM | > 50000 nM | > 50000 nM
COC(=O)C[C@@H]1NC(=O)c2cc(OCc3ccccc3)c(NC(=O)c3cc(OC)c(OC)c(OC)c3)cc2NC1=O | > 50000 nM | > 50000 nM | > 50000 nM | > 50000 nM | > 50000 nM | > 50000 nM
CCN(CC)C(=O)C[C@@H]1NC(=O)c2cc(Oc3cc(C)c(Br)c(C)c3)c(NC(=O)c3cc(OC)c(OC)c(OC)c3)cc2NC1=O | 243 nM | 1000 nM | 234 nM | – | 128 nM | 172 nM
CCN(CC)C(=O)C[C@@H]1NC(=O)c2cc(Oc3cc(C)c(F)c(C)c3)c(NC(=O)c3cc(OC)c(OC)c(OC)c3Cl)cc2NC1=O | 26 nM | 61 nM | 16 nM | 27 nM | 8 nM | 17 nM
CCN(CC)C(=O)C[C@H]1C(=O)Nc2cc(NC(=O)c3cc(OC)c(OC)c(OC)c3)c(Oc3cc(C)cc(C)c3)cc2C(=O)N1CC | 148 nM | 158 nM | 69 nM | 118 nM | 134 nM | 145 nM
COC(=O)C[C@@H]1NC(=O)c2cc(-c3cc(C)cc(C)c3)c(NC(=O)c3cc(OC)c(OC)c(OC)c3)cc2NC1=O | > 50000 nM | > 50000 nM | > 50000 nM | > 50000 nM | > 50000 nM | > 50000 nM
CCN(CC)C(=O)C[C@@H]1NC(=O)c2cc(Oc3cc(C)cc(C)c3)c(NC(=O)c3c(F)c(OC)c(OC)c(OC)c3Cl)cc2NC1=O | 15 nM | 61 nM | 23 nM | 40 nM | 7 nM | 17 nM
COC(=O)C[C@@H]1NC(=O)c2cc(Oc3ccc(OC)cc3)c(NC(=O)c3cc(OC)c(OC)c(OC)c3)cc2NC1=O | > 50000 nM | > 50000 nM | > 50000 nM | > 50000 nM | > 50000 nM | > 50000 nM
COC(=O)C[C@@H]1NC(=O)c2cc(OC)c(NC(=O)c3cc(OC)c(OC)c(OC)c3)cc2NC1=O | > 50000 nM | > 50000 nM | > 50000 nM | > 50000 nM | > 50000 nM | > 50000 nM
COc1cc(C(=O)Nc2cc3c(cc2Oc2cc(C)cc(C)c2)C(=O)N[C@@H](CC(N)=O)C(=O)N3)cc(OC)c1OC | 3970 nM | 3450 nM | 1120 nM | 2010 nM | 350 nM | 790 nM
